This assay deals with T1, wild-type HIV-1 protease (Human immunodeficiency virus type 1 group M subtype B, UniProt P04585).
T1 construct: Escherichia coli expressed wild-type HIV-1 protease protein
The experiment in a line: Assay for Inhibition of Microbial Expressed HIV Protease (peptide substrate cleavage, LC-MS/MS readout). The assay is classed as biochemical. The following applies: E. coli expressed wild-type HIV-1 protease, mean of at least two independent experiments, read-out: HIV Pr Enzyme HIV1 PR IC50. The essentials: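 Cleavage of Val-Ser-Gln-Asn-(β-naphthyl)Ala-Pro-Ile-Val (400 μM) by recombinant HIV-1 protease ([…]) ran 1 h at 30 °C after a 30 min room-temperature inhibitor preincubation in 50 mM sodium acetate pH 5.5. Product peak areas by LC-MS/MS gave inhibition; values average at least two independent runs.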

Turning to `CC(C)CCC1(c2ccccc2)NC(=N)N(Cc2cccc(C(=O)N3CCN(C)C(=O)C3)c2)C1=O` (stereo not shown) [Compound 283, 4-[(3-{[2-imino-4-(3-methylbutyl)-5-oxo-4-phenylimidazolidin-1-yl]methyl}phenyl)carbonyl]-1-methylpiperazin-2-one], the IC50 (in general, the concentration that inhibits the measured activity by half) came out at 0.0318 µM.

Regarding `CN1CCN(C(=O)c2cc(CN3C(=N)NC(c4ccc(F)cc4)(c4ccc(F)cc4)C3=O)ccc2C(F)(F)F)CC1=O` [Compound 157, 4-{[5-{[4,4-bis(4-fluorophenyl)-2-imino-5-oxoimidazolidin-1-yl]methyl}-2-(trifluoromethyl)phenyl]carbonyl}-1-methylpiperazin-2-one], the IC50 worked out at 0.0141 µM. In the case of `N=C1NC(c2ccccc2)(c2ccccc2)C(=O)N1Cc1cccc(C(=O)N2CCn3c(nnc3C(F)(F)F)C2)c1` [Compound 329, 2-imino-5,5-diphenyl-3-(3-{[3-(trifluoromethyl)-5,6-dihydro[1,2,4]triazolo[4,3-a]pyrazin-7(8H)-yl]carbonyl}benzyl) imidazolidin-4-one], the half-inhibitory concentration (IC50) worked out at 0.0669 µM.

With `C[C@@H](c1cccc(C(=O)N2Cc3ccccc3C2)c1)N1C(=N)NC(c2ccccc2)(c2ccccc2)C1=O` [Compound 331, 3-{(1S)-1-[3-(1,3-dihydro-2H-isoindol-2-ylcarbonyl)phenyl]ethyl}-2-imino-5,5-diphenylimidazolidin-4-one], the IC50 was 0.0676 µM. Turning to `COC(=O)N1CCN(C(=O)c2cccc(CN3C(=N)NC(c4ccc(F)cc4)(c4cccc(-c5cccc(C#N)c5)c4)C3=O)c2)CC1` (stereo not shown) [Compound 234, methyl 4-[(3-{[4-(3′-cyanobiphenyl-3-yl)-4-(4-fluorophenyl)-2-imino-5-oxoimidazolidin-1-yl]methyl}phenyl)-carbonyl]piperazine-1-carboxylate], the IC50 turned out to be 0.0142 µM. Turning to `CC(C)CCC1(c2ccccc2)NC(=N)N(Cc2cccc(C(=O)N3Cc4cnc(C#N)nc4C3)c2)C1=O` (stereo not shown) [Compound 191, 6-[(3-{[2-imino-4-(3-methylbutyl)-5-oxo-4-phenylimidazolidin-1-yl]methyl}phenyl)carbonyl]-6,7-dihydro-5H-pyrrolo[3,4-d]pyrimidine-2-carbonitrile], the IC50 was found to be 0.00417 µM.

Turning to `N=C1NC(c2ccc(F)cc2)(c2ccc(F)cc2)C(=O)N1Cc1cccc(C(=O)N2CCN(c3ncccn3)CC2)c1` [Compound 280, 5,5-bis(4-fluorophenyl)-2-imino-3-{3-[(4-pyrimidin-2-ylpiperazin-1-yl)carbonyl]benzyl} imidazolidin-4-one], the IC50 amounted to 0.031 µM. For `CC(=O)NCc1cc2c(o1)CCN(C(=O)c1cc(CN3C(=N)NC(CCC(C)C)(c4ccc(F)cc4)C3=O)ccc1C(F)(F)F)C2` (stereo not shown) [Compound 178, N-[(5-{[5-{[4-(4-fluorophenyl)-2-imino-4-(3-methylbutyl)-5-oxoimidazolidin-1-yl]methyl}-2-(trifluoromethyl)phenyl]carbonyl}-4,5,6,7-tetrahydrofuro[3,2-c]pyridin-2-yl)methyl]acetamide], the concentration for half-maximal inhibition (IC50) came to 0.0716 µM. As to `N=C1NC(c2ccc(F)cc2)(c2ccc(F)cc2)C(=O)N1Cc1cc(C(=O)N2Cc3ccccc3C2)ccn1` [Compound 398, 3-{[4-(1,3-dihydro-2H-isoindol-2-ylcarbonyl)pyridin-2-yl]methyl}-5,5-bis(4-fluorophenyl)-2-iminoimidazolidin-4-one], the 50% inhibitory concentration (IC50) was found to be 0.0192 µM. To `CC(C)CC1(c2ccccc2)NC(=N)N(Cc2cccc(C(=O)N3CCc4ccccc4C3)c2)C1=O` (stereo not shown) [Compound 318, 3-[3-(3,4-dihydroisoquinolin-2(1H)-ylcarbonyl)benzyl]-2-imino-5-(2-methyl-propyl)-5-phenylimidazolidin-4-one] belongs 0.0562 µM; to `N=C1NC(c2ccc(F)cc2)(c2ccc(F)cc2)C(=O)N1Cc1cccc(C(=O)N2CCC(n3c(=O)[nH]c4ccccc43)CC2)c1` [Compound 338, 1-{1-[(3-{[4,4-bis(4-fluorophenyl)-2-imino-5-oxoimidazolidin-1-yl]methyl}phenyl)carbonyl]piperidin-4-yl}-1,3-dihydro-2H-benzimidazol-2-one], 0.0735 µM.

Turning to `CC(C)CC(c1ccc(C(F)(F)F)c(C(=O)N2Cc3nccnc3C2)c1)N1C(=N)N[C@](CC2CC2)(c2ccccc2)CC1=O` (stereo partly drawn) [Compound 77, (6S)-6-(cyclopropylmethyl)-3-{1-[3-(5,7-dihydro-6H-pyrrolo[3,4-b]pyrazin-6-ylcarbonyl)-4-(trifluoromethyl)phenyl]-3-methyl-butyl}-2-imino-6-phenyltetra-hydropyrimidin-4(1H)-one], the half-inhibitory concentration (IC50) amounted to 0.0105 µM. `CSc1nnc2n1CCN(C(=O)c1cc(CN3C(=N)N[C@](CCCC(F)(F)F)(c4ccc(F)cc4)C3=O)ccc1C(F)(F)F)C2` [Compound 50, (5R)-5-(4-fluorophenyl)-2-imino-3-[3-{[3-(methylsulfanyl)-5,6-dihydro[1,2,4]triazolo[4,3-a]pyrazin-7(8H)-yl]carbonyl}-4-(trifluoromethyl)benzyl]-5-(4,4,4-trifluorobutyl)imidazolidin-4-one]: the IC50 was determined as 0.00549 µM. `CC(C)C[C@]1(c2ccccc2)NC(=N)N([C@H](C)c2cccc(C(=O)N3CCN(C)C(=O)C3)c2)C1=O` [Compound 328, 4-[(3-{(1R)-1-[2-imino-4-(2-methylpropyl)-5-oxo-4-phenylimidazolidin-1-yl]ethyl}phenyl)carbonyl]-1-methylpiperazin-2-one]: the IC50 worked out at 0.0648 µM. For the molecule `N=C1NC(CCC2CC2)(c2cc(F)cc(F)c2)C(=O)N1Cc1ccc(C(F)(F)F)c(C(=O)N2CCn3c(nnc3C(F)(F)F)C2)c1` (stereo not shown) [Compound 82, 5-(2-cyclopropylethyl)-5-(3,5-difluorophenyl)-2-imino-3-[4-(trifluoromethyl)-3-{[3-(trifluoro-methyl)-5,6-dihydro-[1,2,4]triazolo-[4,3-a]pyrazin-7(8H)-yl]carbonyl}-benzyl]imidazolidin-4-one], the IC50 was determined as 0.0131 µM. The figure for `N=C1N[C@](CCCC(F)(F)F)(c2ccc(F)cc2)C(=O)N1Cc1ccc(C(F)(F)F)c(C(=O)N2Cc3cnc(-c4cccc(F)c4)nc3C2)c1` [Compound 86, (5R)-5-(4-fluorophenyl)-3-[3-{[2-(3-fluorophenyl)-5,7-dihydro-6H-pyrrolo[3,4-d]pyrimidin-6-yl]carbonyl}-4-(trifluoromethyl)-benzyl]-2-imino-5-(4,4,4-trifluorobutyl)imidazolidin-4-one] is 0.0145 µM. To `CN(C)c1ncc2c(n1)CN(C(=O)c1cc(CN3C(=N)N[C@](CCCC(F)(F)F)(c4ccc(F)cc4)C3=O)ccc1C(F)(F)F)C2` [Compound 80, (5R)-3-[3-{[2-(dimethylamino)-5,7-dihydro-6H-pyrrolo[3,4-d]pyrimidin-6-yl]carbonyl}-4-(trifluoromethyl)benzyl]-5-(4-fluorophenyl)-2-imino-5-(4,4,4-trifluorobutyl)imidazolidin-4-one] belongs 0.0115 µM; to `CCCC1(c2ccccc2)NC(=N)N(Cc2cccc(C(=O)N3Cc4cnc(C#N)nc4C3)c2)C1=O` (stereo not shown) [Compound 243, 6-({3-[(2-imino-5-oxo-4-phenyl-4-propylimidazolidin-1-yl)methyl]phenyl}carbonyl)-6,7-dihydro-5H-pyrrolo[3,4-d]pyrimidine-2-carbonitrile], 0.0167 µM. Consider `CC(C)CCC1(c2ccccc2)NC(=N)N(Cc2cccc(C(=O)N3Cc4cncnc4C3)c2)C1=O` (stereo not shown) [Compound 227, 3-[3-(5,7-dihydro-6H-pyrrolo[3,4-d]pyrimidin-6-ylcarbonyl)benzyl]-2-imino-5-(3-methylbutyl)-5-phenylimidazolidin-4-one], for which the IC50 worked out at 0.0126 µM.

For the origin of these results see patent US20200069691A1, “HETEROCYCLIC COMPOUNDS AS HIV PROTEASE INHIBITORS” (Merck Sharp & Dohme Corp., priority 2016, published 2020).
